Read-outs that look alike come from different tables or passages of the source.
Columns and labels:
Aspergillus ATCC 13073 = assay: microbe, parasite or virus in culture; type: cell-based
Experimental: (§1) The anti-fungal activity of Domain III derived peptides was evaluated against a variety of fungal species, including species of Candida. Cryptococcus, Fusarium, Trichophyton, and Aspergillus, by an additional assay protocol utilizing Alamar Blue. Alamar Blue is an indicator dye formulated to measure quantitatively the proliferation of a variety of human or animal cells, bacteria, or fungi. It consists of an oxidation-reduction (REDOX) indicator that yields a colorimetric change in response to metabolic activity. For these experiments, species of Candida and Cryptococcus were grown in Sabouraud's dextrose broth (SDB) overnight. Strains of filamentous fungi (Aspergilius, Fusanum, Trichophyton) were obtained by irrigation of a confluent culture from a petri dish. Cells were washed and adjusted to a concentration of 5.0×10^3/mL in fresh SDB. […] Controls included amphotericin B, fluconazole, ketoconazole and griseofulvin. Antifungal drugs were also diluted in the same manner. Assays were performed in 96-well microuiter plates. […] The wells to be plated were determined by OD590 readings. The lowest concentration of peptide which maintained the blue color (or OD reading) of the blank was chosen along with the next two higher concentrations. Plates were allowed to grow for 18-48 hours depending on the rate of growth of each fungus. Minimal fungicidal activity (MFC) was determined as a 99.9% killing of the starting inoculum.

[1] = test system: Aspergillus niger ATCC 16404; assay: microbe, parasite or virus in culture; type: cell-based
Experimental: as §1

[2] = test system: Candida albicans (SLU-1 and ATCC strains); assay: microbe, parasite or virus in culture; type: cell-based
Experimental: as §1

[3] = test system: Candida glabrata ATCC 2001; assay: microbe, parasite or virus in culture; type: cell-based
Experimental: as §1

[4] = test system: Candida parapsilosis ATCC 22019; assay: microbe, parasite or virus in culture; type: cell-based
Experimental: as §1

[5] = test system: Cryptococcus neoformans ATCC 13690; assay: microbe, parasite or virus in culture; type: cell-based
Experimental: as §1

[6] = test system: Fusarium solani ATCC 36031; assay: microbe, parasite or virus in culture; type: cell-based
Experimental: as §1

[7] = test system: Trychophyton rubrum ATCC 28188; assay: organism not typed; type: cell-based
Experimental: as §1

[8] = test system: C. albicans (SLU-1 and other strains); type: cell-based, Candida albicans
Experimental: In additional experiments, a fluorescence-activated cell sorter (FACS) based assay was developed to test the fungicidal activity of the peptides. […] Difco) agar. Several colonies were picked from the agar plate and inoculated into 5 mL of Sabouraud's Dextrose media in a sterile 10 mL polypropylene tube. The fungal cultures were incubated for about 18 hours at 30° C. […] The culture were centrifuged at 3000 rpm for 5 minutes (Sorvall RT 6000B). After centrifugation, the supernatant was decanted leaving the fungal pellets in the centrifuge tubes. The pellets were resuspended in 15 mL of SDB. Both suspensions were combined into one tube and mixed to generate a stock culture. […] After determining the concentration of the stock, appropriate dilutions were made with Sabouraud's Dextrose media to obtain 100 mL of 1×10^6 cell/mL. […] After the 1 hour incubation, all the tubes were centrifuged at 3000 rpm for 5 minutes. […] Louis, Mo.) in Dulbecco's PBS (DPBS, GIBCO, Grand Island, N.Y.) except the autofluorescence control, which was resuspended in DPBS alone. The tubes were mixed and incubated in the dark at room temperature for at least 20 minutes. […] The settings were adjusted appropriately to the following approximate parameters: Cells were analyzed (10,000 cells/tube) and their respective fluorescence determined. […] The population of dead (i.e., propidium iodide stained) fungal cells was determined by a fluorescence threshold between the negative control and positive control.

in vitro = in vitro ADME, rat or human serum; settings: serum, half-life of peptide in serum as detected by HPLC analysis; read-out: HPLC Peptide in Serum t ½ (converted)
Experimental: For these serum stability experiments, peptides were prepared by solid phase peptide sythesis and purified to 94% or greater purity as described in Example 1. Blood was collected from metaphane anesthesized rats by aortic bleed into Vacutainer™ tubes and allowed to clot at room temperature for approximately 30 minutes, then centrifuged at 3000 rpm (about 1000×g) for 10 minutes at room temperature and the serum aspirated. In addition, frozen human serum (North American Biologics, Inc., Miami, Fla., cat. no. 2140, lot no. 94115) was thawed at room temperature and filtered through a 0.45 μm membrane before use.
A 1 mg/mL solution of an exemplary XMP peptide to be tested was added to an equal volume of either rat or human serum described above and maintained at 37° C. At 0, 1, 2, and 4 hours, 100 μL were removed and processed by solid phase extraction for HPLC analysis as follows. Serum samples were prepared for HPLC using C-18 Sep-Pak cartridges (1 mL cartridge with 100 mg of sorbent, Waters Corp., Milford, Mass.). One hundred μL of serum sample were added to an equal volume of 1% TFA and mixed for 30 seconds on a Vortex mixer. The sample was then applied to a C-18 Sep-Pak cartridge that had been conditioned by washing with 1 mL of methanol followed by 1 mL Milli-Q water. Weakly reed components were eluted by washing with 1 mL of 0. 1% TFA. The bound peptide was eluted with two volumes of 250 μL 80% acetonitrile/0.065% TFA.
The material eluted from the Sep-Pak cartridge was analyzed on a Michrom Ultaafast Microprotein Analyzer equipped with a 150 mm×1 mm, 5μ particle, 300 Å pore C-8 Zorbax column. The column oven was set to 40° C., the flow rate was 100 μL/minute, and injection volumes were typically 5-10 μL. HPLC was performed using 5% acetonitrile/0.1% TFA in water as mobile phase A, and 80% acetonitrile/0.065% TFA as mobile phase B. The eluate was monitored spectiophotometrically at 214 nm. Peptide standards were dissolved in mobile phase A at 0. 1 mg/mL. The gradient was 25-35% B/10 minutes followed by a 5 minute wash step of 100% B and reequilibration at 25% B for 10 minutes.

Candida albicans = assay: Radial diffusion assay, Candida species (Table 2); type: cell-based; settings: higher effective concentration of agarose than Table 1

## H-SKVKWLIQLFHKK-NH2 [XMP.284]
Aspergillus ATCC 13073; ATCC 13073
  Minimum Fungicidal Concentration, Aspergillus ATCC 13073: 12.50 µg/mL
[1]; ATCC 16404
  Minimum Fungicidal Concentration, Aspergillus niger ATCC 16404: 2.5 µg/mL
[2]; SLU-1 and ATCC strains
  Minimum Fungicidal Concentration, Candida albicans ATCC 10231: 5.0 µg/mL
  Minimum Fungicidal Concentration, Candida albicans ATCC 18840: 2.5 µg/mL
  Minimum Fungicidal Concentration, Candida albicans ATCC 26555: 1.25 µg/mL
  Minimum Fungicidal Concentration, Candida albicans ATCC 44808: 1.25 µg/mL
  Minimum Fungicidal Concentration, Candida albicans ATCC 90028: 1.25 µg/mL
  Minimum Fungicidal Concentration, Candida albicans SLU-1: 2.50 µg/mL
[3]; ATCC 2001
  Minimum Fungicidal Concentration, Candida glabrata ATCC 2001: >10.0 µg/mL
[4]; ATCC 22019
  Minimum Fungicidal Concentration, Candida parapsilosis ATCC 22019: >10.0 µg/mL
[5]; ATCC 13690
  Minimum Fungicidal Concentration, Cryptococcus neoformans ATCC 13690: 0.63 µg/mL
[6]; ATCC 36031
  Minimum Fungicidal Concentration, Fusarium solani ATCC 36031: 0.31 µg/mL
[7]; ATCC 28188
  Minimum Fungicidal Concentration, Trychophyton rubrum ATCC 28188: 5.0 µg/mL
[8]; SLU-1 and other strains
  Activity on various strains of C. albicans, IC50, 10231: 1.86 µg/mL
  Activity on various strains of C. albicans, IC50, 14053: 0.50 µg/mL
  Activity on various strains of C. albicans, IC50, 26555: 0.59 µg/mL
  Activity on various strains of C. albicans, IC50, 90028: 1.08 µg/mL
  Activity on various strains of C. albicans, IC50, SLU#1: 0.31 µg/mL
In vitro
  half-life at 0.5 mg/mL: 4.2 h

## H-KSKVGWLIQLFHKK-NH2 [XMP.13]
Candida albicans
  Anti-fungal activity: pmol/30 mm^2 zone, Candida albicans: 2,233 pmol/30 mm^2 zone
In vitro
  half-life at 0.5 mg/mL: 2.5 h

## C[C@@H]1[C@H](O)[C@@H](C)/C=C/C=C/C=C/C=C/C=C/C=C/C=C/[C@H](O[C@@H]2O[C@H](C)[C@@H](O)[C@H](N)[C@@H]2O)C[C@@H]2O[C@](O)(C[C@@H](O)C[C@@H](O)[C@H](O)CC[C@@H](O)C[C@@H](O)CC(=O)O[C@H]1C)C[C@H](O)[C@H]2C(=O)O [Amphotericin B, amphotericin B, reference compound]
Candida albicans
  Anti-fungal activity: pmol/30 mm^2 zone, Candida albicans: 11 pmol/30 mm^2 zone
Aspergillus ATCC 13073
  Minimum Fungicidal Concentration, Aspergillus ATCC 13073: 12.50 µg/mL
[1]
  Minimum Fungicidal Concentration, Aspergillus niger ATCC 16404: 5.00 µg/mL
[2]; strain ATCC 10231
  Minimum Fungicidal Concentration, Candida albicans ATCC 10231: 0.63 µg/mL
[2]; strain ATCC 18840
  Minimum Fungicidal Concentration, Candida albicans ATCC 18840: 1.25 µg/mL
[2]; strain ATCC 26555
  Minimum Fungicidal Concentration, Candida albicans ATCC 26555: 1.25 µg/mL
[2]; strain ATCC 44808
  Minimum Fungicidal Concentration, Candida albicans ATCC 44808: 1.25 µg/mL
[2]; strain ATCC 90028
  Minimum Fungicidal Concentration, Candida albicans ATCC 90028: 1.25 µg/mL
[2]; strain SLU-1
  Minimum Fungicidal Concentration, Candida albicans SLU-1: 0.63 µg/mL
[3]
  Minimum Fungicidal Concentration, Candida glabrata ATCC 2001: 0.32 µg/mL
[4]
  Minimum Fungicidal Concentration, Candida parapsilosis ATCC 22019: 5.0 µg/mL
[5]
  Minimum Fungicidal Concentration, Cryptococcus neoformans ATCC 13690: 1.25 µg/mL
[6]
  Minimum Fungicidal Concentration, Fusarium solani ATCC 36031: 0.62 µg/mL
[7]
  Minimum Fungicidal Concentration, Trychophyton rubrum ATCC 28188: 0.32 µg/mL
[8]; Table 5, percentage of dead cells, 1 hour, 30° C.
  Activity of peptides on C. albicans SLU-1, IC50: 79.36 µg/mL

Source: patent US6664231B1, “Anti-fungal peptides” (priority 1993, dated 2003)
